Assay [1] deals with T1, human GHS receptor (Homo sapiens, UniProt Q92847). In words: h bind IC50 (binding assay, Table 1). The settings on record: human receptor; Table 1.
Assay [2] addresses T1, human GHS receptor. In words: Ghrelin IP1 agonist assay (IP1 HTRF). Type of assay: cell-based. The arrangement: expressed in transfected cells; host or cells: HEK293s. To be noted: for Emax: 2 h, agonist effect as % maximal effect of GHRP-6 (5 μM), read-out: h IP1 ag %; for EC50: HEK293s cells stably expressing human GHS receptor, 2 hours at 37° C., read-out: h IP1 ag EC50. The gist of the method:
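Cells: HEK293s stably expressing human GHS receptor, in stimulation buffer containing 0.02% fatty acid free BSA.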

Bounds are passed on as bounds.

T1 sequence (Q92847 whole entry): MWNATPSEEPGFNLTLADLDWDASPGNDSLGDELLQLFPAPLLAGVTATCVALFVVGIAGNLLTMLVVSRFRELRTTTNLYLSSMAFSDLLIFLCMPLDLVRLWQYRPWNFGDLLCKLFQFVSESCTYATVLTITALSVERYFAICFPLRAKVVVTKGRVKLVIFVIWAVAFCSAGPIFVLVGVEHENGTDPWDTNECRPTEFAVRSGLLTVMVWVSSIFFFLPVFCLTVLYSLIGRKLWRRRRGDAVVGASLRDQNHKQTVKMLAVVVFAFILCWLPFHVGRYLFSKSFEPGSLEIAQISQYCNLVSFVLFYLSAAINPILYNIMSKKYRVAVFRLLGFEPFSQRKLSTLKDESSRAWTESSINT

The compound `CS(=O)(=O)c1ccc2nc(NC(=O)NC(=O)c3ccccc3-c3ccccc3)sc2c1` [Example 105, N-[(6-Methylsulfonylbenzothiazol-2-yl)carbamoyl]-2-phenyl-benzamide] came in with an IC50 at human GHS receptor [1] of 215 nM. Also, at human GHS receptor [2], the Emax was determined as 39.4% and the EC50 worked out at 98.6 nM.
`O=C(NC(=O)c1ccccc1Cl)Nc1nc2ccc(S(=O)(=O)CCN3CCCOCC3)cc2s1` [Example 30, 2-Chloro-N-[[6-[2-(1,4-oxazepan-4-yl)ethylsulfonyl]benzothiazol-2-yl]carbamoyl]benzamide] gave an IC50 at human GHS receptor [1] of 251 nM. Besides, on human GHS receptor [2], the Emax is 23.8% and the concentration for a half-maximal effect (EC50) is 39.2 nM.
For `CN(CCS(=O)(=O)c1ccc2nc(NC(=O)NC(=O)c3ccccc3Cl)sc2c1)CC1CCCO1` (stereo not drawn) [Example 26, 2-Chloro-N-[[6-[2-(methyl-(oxolan-2-ylmethyl)amino)ethylsulfonyl]benzothiazol-2-yl]carbamoyl]benzamide], in that order: 428 nM, 26.1% and 623 nM.
As for `CS(=O)(=O)c1ccc2nc(NC(=O)NC(=O)c3cc(-c4ncccn4)ccc3Cl)sc2c1` [Example 57, 2-Chloro-N-(6-(methylsulfonyl)benzothiazol-2-ylcarbamoyl)-5-(pyrimidin-2-yl)benzamide], the half-inhibitory concentration (IC50) at human GHS receptor [1] turned out to be 162 nM. On human GHS receptor [2], the Emax worked out at 0% and the EC50 is more than 25000 nM.
Turning to `O=C(NC(=O)c1ccccc1Cl)Nc1nc2ccc(S(=O)(=O)CCN3CCOCC3)cc2s1` [Example 1, 2-Chloro-N-[[6-(2-morpholin-4-ylethylsulfonyl)benzothiazol-2-yl]carbamoyl]benzamide], the IC50 at human GHS receptor [1] turned out to be 64.4 nM. At human GHS receptor [2], the Emax was 24% and the EC50 stood at 29.2 nM.
`CS(=O)(=O)c1ccc2nc(NC(=O)NC(=O)c3cc(C4CC4)ccc3Cl)sc2c1` [Example 49, 2-Chloro-5-cyclopropyl-N-(6-(methylsulfonyl)benzothiazol-2-ylcarbamoyl)benzamide] came in with an IC50 on human GHS receptor [1] of 12.9 nM. In addition, on human GHS receptor [2], the Emax was determined as 0% and the EC50 is not below 25000 nM.
`CS(=O)(=O)c1ccc2nc(NC(=O)NC(=O)c3ccccc3OS(=O)(=O)C(F)(F)F)sc2c1` [Example 137, N-[(6-Methylsulfonylbenzothiazol-2-yl)carbamoyl]-2-(trifluoromethylsulfonyloxy)benzamide] yielded an IC50 at human GHS receptor [1] of 1750 nM. Further, at human GHS receptor [2], the Emax is 24.1% and the EC50 came to 2320 nM.
For the compound `Cc1ccccc1C(=O)NC(=O)Nc1nc2ccc(S(C)(=O)=O)cc2s1` [Example 128, 2-Methyl-N-[(6-methylsulfonylbenzothiazol-2-yl)carbamoyl]benzamide], the IC50 on human GHS receptor [1] worked out at 100 nM. At human GHS receptor [2], the Emax is 17.3% and the 50% effective concentration (EC50) came out at 219 nM.
For `CS(=O)(=O)c1ccc2nc(NC(=O)NC(=O)c3c(Cl)cccc3Cl)sc2c1` [Example 101, 2,6-Dichloro-N-[(6-methylsulfonylbenzothiazol-2-yl)carbamoyl]benzamide], in that order: 284 nM, 7.89% and 206 nM.
For `O=C(NC(=O)c1ccccc1Cl)Nc1nc2ccc(S(=O)(=O)C3CCCNC3)cc2s1` (stereo not drawn) [Example 139, 2-Chloro-N-[[6-(3-piperidylsulfonyl)benzothiazol-2-yl]carbamoyl]benzamide], in that order: 107 nM, 46.7% and 27.3 nM.
As for `O=C(NC(=O)c1ccccc1Cl)Nc1nc2ccc(S(=O)(=O)CCO)cc2s1` [Example 41, 2-Chloro-N-[[6-(2-hydroxyethylsulfonyl)benzothiazol-2-yl]carbamoyl]benzamide], the IC50 on human GHS receptor [1] is 535 nM. For the same compound, at human GHS receptor [2], the Emax was 18.1% and the EC50 came out at 95.8 nM.
In turn, `CNC1CC(S(=O)(=O)c2ccc3nc(NC(=O)NC(=O)c4ccccc4Cl)sc3c2)C1` (stereo not drawn) [Example 215, 2-Chloro-N-[[6-(3-methylaminocyclobutyl)sulfonylbenzothiazol-2-yl]carbamoyl]benzamide] gave an IC50 at human GHS receptor [1] of 27.2 nM. Also, at human GHS receptor [2], the Emax came out at 50.2% and the EC50 was 23 nM.
In turn, `CN1CCN(CCCS(=O)(=O)c2ccc3nc(NC(=O)NC(=O)c4cc(-n5cccc5)ccc4Cl)sc3c2)CC1` [Example 85, 2-Chloro-N-(6-(3-(4-methylpiperazin-1-yl)propylsulfonyl)benzothiazol-2-ylcarbamoyl)-5-(1H-pyrrol-1-yl)benzamide] yielded a 50% inhibitory concentration (IC50) at human GHS receptor [1] of 0.2 nM. Further, on human GHS receptor [2], the Emax worked out at 0.18% and the EC50 was not below 25000 nM.
On human GHS receptor [1], `O=C(NC(=O)c1ccccc1Cl)Nc1nc2ccc(S(=O)(=O)CCNCC3CC3)cc2s1` [Example 34, 2-Chloro-N-[[6-[2-(cyclopropylmethylamino)ethylsulfonyl]benzothiazol-2-yl]carbamoyl]benzamide] registered an IC50 of 99.3 nM. For the same compound, at human GHS receptor [2], the Emax was found to be 46.7% and the EC50 is 11.1 nM.
On to `CCOc1cc(C(=O)NC(=O)Nc2nc3ccc(S(=O)(=O)C4CCN(C)CC4)cc3s2)c(Cl)cc1OC` [Example 256, 2-chloro-5-ethoxy-4-methoxy-N-(6-(1-methylpiperidin-4-ylsulfonyl)benzo [d]thiazol-2-ylcarbamoyl) benzamide], for which the IC50 at human GHS receptor [1] came to 58.9 nM. In addition, at human GHS receptor [2], the Emax came out at 0% and the 50% effective concentration (EC50) is not below 20000 nM.
For `CN1CCN(CCCCS(=O)(=O)c2ccc3nc(NC(=O)NC(=O)c4ccccc4Cl)sc3c2)CC1` [Example 210, 2-Chloro-N-[[6-[4-(4-methylpiperazin-1-yl)butylsulfonyl]benzothiazol-2-yl]carbamoyl]benzamide], in that order: 2.2 nM, 51.5% and 2.26 nM.
Compound `O=C(NC(=O)c1ccccc1Cl)Nc1nc2ccc(S(=O)(=O)CCNC3CC4CCC3C4)cc2s1` (stereo not drawn) [Example 35, 2-Chloro-N-[[6-[2-(norbornan-2-ylamino)ethylsulfonyl]benzothiazol-2-yl]carbamoyl]benzamide] registered an IC50 on human GHS receptor [1] of 71.5 nM. Further, at human GHS receptor [2], the Emax turned out to be 56.1% and the EC50 worked out at 10.4 nM.
As to `CCc1ccccc1C(=O)NC(=O)Nc1nc2ccc(S(C)(=O)=O)cc2s1` [Example 141, 2-Ethyl-N-[(6-methylsulfonylbenzothiazol-2-yl)carbamoyl]benzamide], at human GHS receptor [1], the IC50 stood at 111 nM. For the same compound, on human GHS receptor [2], the Emax worked out at 22.7% and the EC50 worked out at 184 nM.
For `CN1CCCN(CCCS(=O)(=O)c2ccc3nc(NC(=O)NC(=O)c4ccccc4Cl)sc3c2)CC1` [Example 204, 2-Chloro-N-[[6-[3-(4-methyl-1,4-diazepan-1-yl)propylsulfonyl]benzothiazol-2-yl]carbamoyl]benzamide], in that order: 1.2 nM, 36.2% and 6.92 nM.
At human GHS receptor [1], `CCOc1cc(Cl)c(C(=O)NC(=O)Nc2nc3ccc(S(=O)(=O)C4CCN(C)CC4)cc3s2)cc1-n1cccn1` [Example 261, 2-chloro-4-ethoxy-N-(6-(1-methylpiperidin-4-ylsulfonyl)benzo [d]thiazol-2-ylcarbamoyl)-5-(1H-pyrazol-1-yl)benzamide] came in with an IC50 of 0.93 nM. At human GHS receptor [2], the Emax came to 0% and the EC50 is not below 20000 nM.
As for `COCCNCCS(=O)(=O)c1ccc2nc(NC(=O)NC(=O)c3ccccc3Cl)sc2c1` [Example 2, 2-Chloro-N-[[6-[2-(2-methoxyethylamino)ethylsulfonyl]benzothiazol-2-yl]carbamoyl]benzamide], on human GHS receptor [1], the IC50 turned out to be 13.3 nM. On human GHS receptor [2], the Emax worked out at 40.8% and the EC50 came out at 17.6 nM.
Take `COCCN1CCN(CCCS(=O)(=O)c2ccc3nc(NC(=O)NC(=O)c4ccccc4Cl)sc3c2)CC1` [Example 200, 2-Chloro-N-[[6-[3-[4-(2-methoxyethyl)piperazin-1-yl]propylsulfonyl]benzothiazol-2-yl]carbamoyl]benzamide]: the IC50 on human GHS receptor [1] turned out to be 2.7 nM. In addition, on human GHS receptor [2], the Emax came out at 41.4% and the EC50 is 4.53 nM.
Compound `CC1CCC(C)N1CCS(=O)(=O)c1ccc2nc(NC(=O)NC(=O)c3ccccc3Cl)sc2c1` (stereo not drawn) [Example 18, 2-Chloro-N-[[6-[2-(2,5-dimethylpyrrolidin-1-yl)ethylsulfonyl]benzothiazol-2-yl]carbamoyl]benzamide] registered a half-maximal inhibitory concentration (IC50) at human GHS receptor [1] of 252 nM. On human GHS receptor [2], the Emax turned out to be 47% and the EC50 stood at 53.6 nM.
As for `O=C(NC(=O)c1ccccc1Cl)Nc1nc2ccc(S(=O)(=O)CCN3CCNCC3)cc2s1` [Example 8, 2-Chloro-N-[[6-(2-piperazin-1-ylethylsulfonyl)benzothiazol-2-yl]carbamoyl]benzamide], the IC50 on human GHS receptor [1] is 69.6 nM. Moreover, on human GHS receptor [2], the Emax came to 39.9% and the EC50 was determined as 36.4 nM.
At human GHS receptor [1], `Cc1ccc(F)c(C(=O)NC(=O)Nc2nc3ccc(S(C)(=O)=O)cc3s2)c1Cl` [Example 194, 2-Chloro-6-fluoro-3-methyl-N-[(6-methylsulfonylbenzothiazol-2-yl)carbamoyl]benzamide] yielded an IC50 of 172 nM. Further, at human GHS receptor [2], the Emax was 39.4% and the EC50 was 9.52 nM.
For the compound `CNS(=O)(=O)c1ccc2nc(NC(=O)NC(=O)c3ccccc3Cl)sc2c1` [Example 230, 2-chloro-N-[[6-(methylsulfamoyl)-1,3-benzothiazol-2-yl]carbamoyl] benzamide], the IC50 on human GHS receptor [1] worked out at 19.3 nM. Further, at human GHS receptor [2], the Emax turned out to be 12.6% and the EC50 was 46.5 nM.
For `COc1cc(Cl)c(C(=O)NC(=O)Nc2nc3ccc(S(=O)(=O)C4CCN(C)CC4)cc3s2)cc1N1CCOCC1` [Example 255, 2-chloro-4-methoxy-N-(6-(1-methylpiperidin-4-ylsulfonyl)benzo [d]thiazol-2-ylcarbamoyl)-5-morpholino-benzamide], in that order: 7.91 nM, 80.9% and not below 20000 nM.

The values above are taken from patent US20120115845A1, “THERAPEUTIC AGENTS” (priority 2007, published 2012).
